Data set [1] is described as follows: Chemical stability under acidic, alkaline, oxidative and heat stress (HPLC). The settings on record: for % of substrate remaining in solution: HPLC, relative to control at 30° C. pH 7.0; for percent remaining after 24 h exposure relative to a control at ambient conditions: alkaline conditions (NaOH, final pH 12.5); for release of CBD aglycone (stability of the glucoside bond): any condition (acidic, alkaline, oxidative, heat). The method, then: Alternatively, chemical stability of cannabinoid glycosides was determined under alkaline, acidic, oxidative and heat stress as follows. 25 mM stock solutions of cannabinoids and cannabinoid glycosides were prepared in 100% methanol. 15 μL is mixed with 5 μL of 400 mM HCl solution (final pH=1.1), 400 mM NaOH solution (Final pH=12.5), 12% H2O2 solution (final concentration 3%), or H2O pH 7.0. […] A control under ambient conditions was also prepared where 15 μL of the cannabinoid or cannabinoid glycoside was added to 5 μL H2O pH 7.0 and incubated at 30° C. After 24 h samples were placed on ice and 60 μL of ice-cold 100% methanol is added to each sample. Samples were centrifuged and transferred to HPLC vials for analysis. The remaining concentration of cannabinoid or cannabinoid glycoside was quantified by comparing to authentic analytical standards. Determining the presence of degradation products were determined by comparing with authentic analytical standards.
CBD, CBD-1′-O-β-D-glucoside (OB1), and CBD-1′-O-β-D-glucosyl-3′-O-β-D-glucoside (OB6) were exposed to oxidative, alkaline, acidic and heat conditions as described above, and their degradation quantified by HPLC analysis by measuring the amount of compound remaining in solution after 24 h exposure to a given condition and expressed as percent (%) remaining after 24 h exposure relative to a control at ambient conditions. Also measured was the accumulation of the known CBD degradation product THC, expressed as percent accumulated after 24 h exposure.

Data set [2] can be described thus: Hepatic microsomal stability. Conditions: for CLint / t1/2: human liver microsomes 0.5 mg/mL, 1 μM compound, NADPH and UDP-glucuronic acid. The method, then:
Hepatic microsomal stability of cannabinoid glycosides were determined by incubating 2 μM of molecule with HepaRG™ human liver microsomes (Sigma) supplemented with NADPH at 37° C. Samples were taken at 0, 5, 15, 30, 45, and 60 minute intervals and analyzed as described above. Verapamil (rapid clearance) and Diazepam (low clearance) were used as references.
Alternatively, hepatic microsomal stability of cannabinoid glycosides was determined as follows. HepaRG™ pooled human liver microsomes (Sigma) (final protein concentration=0.5 mg/mL) were mixed with alamethicin (25 μg/mg), 0.1 M phosphate buffer (pH=7.4) and the test compound (1 μM final in DMSO) and incubated at 37° C. prior to addition of NADPH (final concentration 1 mM) and UDP-glucuronic acid (final concentration 1 mM) to initiate the reaction. The compound was incubated for 0, 5, 15, 30, and 45 minutes and the reaction terminated by adding acetonitrile in a 1:3 ratio (v/v). Reactions were centrifuged at 3000 rpm for 20 min at 4° C. to precipitate the protein. Following protein precipitation, internal standards were added to the sample supernatants and analyzed by LC-MS to measure the concentration of compound remaining at each time point, quantification was achieved by comparison to authentic analytical standards.
In vitro hepatic microsomal stability was performed for CBD, CBD-1′-O-β-D-glucoside (OB1), and CBD-1′-O-β-D-glucosyl-3′-O-β-D-glucoside (OB6) as described above and the intrinsic clearance (CLint) and half-life (t1/2) of each compound was determined.
A general note: Liver microsomes are vesicles of endoplasmic reticulum, rich in cytochrome P450 enzymes.

In the case of `C=C(C)[C@@H]1CCC(C)=C[C@H]1c1c(O)cc(CCCCC)cc1O[C@@H]1O[C@H](CO)[C@@H](O)[C@H](O)[C@H]1O` [OB1, CBD-1′-O-β-D-glucoside], in data set [1] (Acidic (pH 1.1), 24 h), the “% accumulation of THC-1′-O-β-D-glucoside (OB20)” value turned out to be 1.61%. In addition, the “% of substrate remaining in solution” value was 80.02% in data set [1] (Acidic (pH 1.1), 24 h); 100.27% in data set [1] (Alkaline (pH 12.5), 24 h); 84.35% in data set [1] (Heat (60° c.), 24 h); 92.98% in data set [1] (Oxidative (H2O2 3%), 24 h). The “accumulation of degradation product THC-1′-O-β-D-glucoside (OB20)” value in data set [1] (acidic conditions (HCl, final pH 1.1), 30° C., 24 h) is reported as “a small amount of THC-1′-O-β-D-glucoside (OB20) was detected”. For the same molecule, the “percent remaining after 24 h exposure relative to a control at ambient conditions” value in data set [1] (30° C.) worked out at 100%. Moreover, the “release of CBD aglycone (stability of the glucoside bond)” value in data set [1] (24 h) is given as “no CBD aglycone was detected”. The same molecule gave a CLint in data set [2] of 1110 ± 0.312 μL/min/mg protein. For the same molecule, in data set [2], the t1/2 turned out to be 1.24 min.
One may read the microsomal CLint as the capacity of the preparation to metabolise the compound, expressed as a volume cleared per time. A low value points to greater metabolic stability. Turning to `C=C(C)[C@@H]1CCC(C)=C[C@H]1c1c(O)cc(CCCCC)cc1O` [CBD, cannabidiol, reference compound], the “% of substrate remaining in solution” value in data set [1] (Acidic (pH 1.1), 24 h) is given as 63.90%; in data set [1] (Alkaline (pH 12.5), 24 h), 2.26%; in data set [1] (Heat (60° c.), 24 h) it was 72.76%; in data set [1] (Oxidative (H2O2 3%), 24 h), 70.56%. Moreover, the “accumulation of degradation product THC” value in data set [1] (acidic and alkaline conditions, 24 h) is reported as “degrades to THC”. Besides, the “percent remaining after 24 h exposure relative to a control at ambient conditions” value in data set [1] (30° C.) amounted to 2.26%. In data set [1] (all conditions tested (acidic, alkaline, oxidative, heat), 24 h), the “stability under stress conditions” value is listed as “unstable under all conditions tested”. In addition, the t1/2 in data set [2] is reported as 3.77 min. In data set [2] (human, microsomes, pH 7.4), the microsomal CLint at 1 μM was 368 ± 0.684 µL/min/mg.
For the molecule `C=C(C)[C@@H]1CCC(C)=C[C@H]1c1c(O[C@@H]2O[C@H](CO)[C@@H](O)[C@H](O)[C@H]2O)cc(CCCCC)cc1O[C@@H]1O[C@H](CO)[C@@H](O)[C@H](O)[C@H]1O` [OB6, CBD-1′-O-β-D-glucosyl-3′-O-β-D-glucoside], the “% of substrate remaining in solution” value in data set [1] (Acidic (pH 1.1), 24 h) is given as 91.90%; in data set [1] (Alkaline (pH 12.5), 24 h) it was 100.62%; in data set [1] (Heat (60° c.), 24 h), 80.79%; in data set [1] (Oxidative (H2O2 3%), 24 h), 74.98%. In data set [1] (30° C.), the “percent remaining after 24 h exposure relative to a control at ambient conditions” value amounted to 100%. Moreover, the “release of CBD aglycone (stability of the glucoside bond)” value in data set [1] (24 h) is reported as “no CBD aglycone was detected”. In addition, in data set [1] (any of the conditions (acidic, alkaline, oxidative, heat), 24 h), the “accumulation of THC or THC-glucoside” value is given as “no THC or THC-glucoside was detected”. Also, the “decrease in intrinsic clearance versus CBD” value in data set [2] (human liver microsomes) was found to be 50 fold. In data set [2] (human liver microsomes), the “increase in half-life versus CBD” value is 50 fold. This molecule came in with a CLint in data set [2] of 7.39 ± 1.32 μL/min/mg protein. The t1/2 in data set [2] was 188 min.

These data come from patent publication US20220290200A1, “GENETICALLY MODIFIED HOST CELLS PRODUCING GLYCOSYLATED CANNABINOIDS” (OCTARINE BIO IVS, priority 2019, published 2022).
